Results as given in US20050036994A1, “Compounds and methods for downregulating the effects of TGF-beta” (priority 2003, published 2005).

How the values were obtained:
pericellular cathepsin B [1] = assay: Pericellular cathepsin B assay with partially purified AHSG or concentrated spent media of infected HEK293 cells (FIG. 8); type: biochemical; conditions: for inhibition of pericellular cathepsin B activity: FIG. 8
Protocol: 50 μl of the cell suspension was added to a black walled 96 well plate (ThermoLabsystems, Part No. 8220, Vantaa, Finland). The appropriate concentration of inhibitors of cathepsin B, purified AHSG or concentrated media were diluted in 5 μl of PAB and the added to the cell suspension in each of the 96 wells. The plate was pre-incubated at 40° C. for 30 min. The reaction was started by adding 50 μl of a 200 μM solution of z-Arg-Arg-AMC (EMD Biosciences Inc, Darmstadt, Germany), a fluorogenic peptide that is lysed by cathhepsin B. This substrate was dissolved in PAB and pre-incubated at 40° C. prior to use. Hydrolytic activity of cathepsin B produces free AMC from the substrate peptide resulting in increased fluorescence. The intensity of fluorescence was measured using ThermoLabsystems Fluoroskan microplate reader with a 355 nm excitation filter and a 420 nm emission filter. The stock solution of z-Arg-Arg-AMC was dissolved in DMSO at the concentration of 10 mM and stored in −80° C. The Cathepsin B specific inhibitors CA-074 and Ac-LVK-CHO (EMD Biosciences Inc., Darmstadt, Germany) were dissolved in H2O at the concentration of 10 mM, aliquoted and stored in −80° C.
HEK 293 cells were subcultured at the cell density of 40% confluence in the morning of the study. […] The next day culture medium was replaced with fresh D-MEM supplemented with 5% FCS and culture for 2 additional days. The culture medium was passed through a filter with the pore size of 0.22 micron and then stored at −80° C. […] A centrifugal filtration unit, NanoSep 100 (Pall Corporation, Ann Arbor, Mich.) were applied to collect the molecular weights lower than 100 kD. The 0.4 ml of the flow through fraction from NanoSep 100 was applied to Nanosep30 and the remaining protein on the filter membrane was re-suspended in 40 μl of PAB (Hank's balanced salt solution without sodium bicarbonate, 0.6 mM MgCl2, 0.6 mM CaCl2, 2 mM 1-cystein and 25 mM PIPES adjusted pH to 7.0) The protein concentration was determined using Bradford reagent (Bio-Rad, Hercules, Calif.). The aliqouts of protein solution was flash frozen by liquid nitrogen and stored in −80° C. prior to use.

pericellular cathepsin B [2] = biological target: T1, pericellular cathepsin B (Mus musculus, UniProt P10605); assay: Pericellular cathepsin B assay (z-Arg-Arg-AMC) on transfected LLC cells; type: biochemical; conditions: 25 nM inhibitor added to the assay
T1 construct: These cells normally express cathepsin B; endogenous in cells; host or cells: Lewis lung carcinoma (LLC) cells, intact cell suspension, transfected with AHSG or empty vectors (not with cathepsin B)
T1 sequence (P10605 80-333): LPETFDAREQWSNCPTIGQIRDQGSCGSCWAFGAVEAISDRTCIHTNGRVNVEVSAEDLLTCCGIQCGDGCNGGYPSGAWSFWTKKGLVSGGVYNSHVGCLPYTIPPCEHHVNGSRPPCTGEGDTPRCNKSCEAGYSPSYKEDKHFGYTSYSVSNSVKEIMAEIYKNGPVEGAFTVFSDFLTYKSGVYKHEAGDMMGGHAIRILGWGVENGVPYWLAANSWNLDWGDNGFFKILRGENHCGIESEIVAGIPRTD
Source text: In this example we used the fluorogenic substrate called z-Arg-Arg-AMC. […] The ability of this substrate to stay outside the cell allowed us to measure the enzymatic activity of pericellular cathepsin B (Hulkower, K. I. et al Eur J Biochem 267:4165 (2000). Many human and mouse cancer cell lines have cathepsin B activity on the cell surface.
To measure the effect of AHSG on the activity of cathepsin B, we expressed AHSG using expression vectors, pAAV-AHSG or pCDNA-AHSG that were used to transfect Lewis lung carcinoma (LLC) cells. These cells normally express cathepsin B (Hulkower, K. I. et al Eur J Biochem 267:4165 (2000)). Thus the addition of the substrate to the cells transfected with a non-specific vector lead to lysis of the peptide and the resulting level of cathepsin B activity was arbitrarily set at 100 (FIG. 7, left column). Cathepsin B activity following transfection with pAAV-AHSG was roughly 25% lower than that in control cells (FIG. 7, second column). Next 25 nM of a known inhibitor of cathepsin B, CA 074 was added to the assay. […] Despite the low transfection efficiency of LLC cells that ranged from 10 to 20% as measured using in situ staining of β-galactosidase activity, the observed reduction of the cathepsin B in the presence of AHSG supports the present invention that expression of AHSG suppresses cathepsin B activity on the cell surface. […]

Row | Molecule | inhibition of pericellular cathepsin B activity (pericellular cathepsin B [1]) | inhibition of cathepsin B activity (words) (pericellular cathepsin B [2]) | inhibition of cathepsin B activity (words) (pericellular cathepsin B [2]; listed as CA 074) | inhibition of pericellular cathepsin B activity (pericellular cathepsin B [1]; listed as AHSG purchased from Sigma) | amount of protein required for complete inhibition, relative to the concentration of AHSG in the blood of adults (0.3 to 0.6 mg/ml) (pericellular cathepsin B [1]; one of the lots)
1 | CCCNC(=O)[C@H]1O[C@@H]1C(=O)N[C@H](C(=O)N1CCC[C@H]1C(=O)O)[C@@H](C)CC [CA-074] | inhibited activity of cathepsin B | inhibited cathepsin B activity | expected inhibition of cathepsin B activity |  | 
2 | purchased AHSG: purchased AHSG (Sigma) partially purified from human plasma (protein, UniProt P02765 19-300; P02765 341-367, looked up) Alpha-2-HS-glycoprotein chain … 1: APHGPGLIYRQPNCDDPETEEAALVAIDYINQNLPWGYKHTLNQIDEVKVWPQQPSGELFEIEIDTLETTCHVLDPTPVARCSVRQLKEHAVEGDCDFQLLKLDGKFSVVYAKCDSSPDSAEDVRKVCQDCPLLAPLNDTRVVHAAKAALAAFNAQNNGSNFQLEEISRAQLVPLPPSTYVEFTVSGTDCVAKEATEAAKCNLLAEKQYGFCKATLSEKLGGAEVAVTCMVFQTQPVSSQPQPEGANEAVPTPVVDPDAPPSPPLGAPGLPPAGSPPDSHVL Alpha-2-HS-glycoprotein chain … 2: TVVQPSVGAAAGPVVPPCPGRIRHFKV | inhibited completely the activity of cathepsin B |  |  | significant inhibition of pericellular cathepsin B activity | less than 10%
